Drawing on the Kinase Knowledgebase extract (Sharma et al. 2016), this text covers IC50 for 38 molecules.

Usually IC50 stands for the concentration that inhibits the measured activity by half. Lower therefore signals inhibition by little substance.

Molecules are shown by their SMILES.

PIK3CG (human), sequence (P48736 whole entry, looked up): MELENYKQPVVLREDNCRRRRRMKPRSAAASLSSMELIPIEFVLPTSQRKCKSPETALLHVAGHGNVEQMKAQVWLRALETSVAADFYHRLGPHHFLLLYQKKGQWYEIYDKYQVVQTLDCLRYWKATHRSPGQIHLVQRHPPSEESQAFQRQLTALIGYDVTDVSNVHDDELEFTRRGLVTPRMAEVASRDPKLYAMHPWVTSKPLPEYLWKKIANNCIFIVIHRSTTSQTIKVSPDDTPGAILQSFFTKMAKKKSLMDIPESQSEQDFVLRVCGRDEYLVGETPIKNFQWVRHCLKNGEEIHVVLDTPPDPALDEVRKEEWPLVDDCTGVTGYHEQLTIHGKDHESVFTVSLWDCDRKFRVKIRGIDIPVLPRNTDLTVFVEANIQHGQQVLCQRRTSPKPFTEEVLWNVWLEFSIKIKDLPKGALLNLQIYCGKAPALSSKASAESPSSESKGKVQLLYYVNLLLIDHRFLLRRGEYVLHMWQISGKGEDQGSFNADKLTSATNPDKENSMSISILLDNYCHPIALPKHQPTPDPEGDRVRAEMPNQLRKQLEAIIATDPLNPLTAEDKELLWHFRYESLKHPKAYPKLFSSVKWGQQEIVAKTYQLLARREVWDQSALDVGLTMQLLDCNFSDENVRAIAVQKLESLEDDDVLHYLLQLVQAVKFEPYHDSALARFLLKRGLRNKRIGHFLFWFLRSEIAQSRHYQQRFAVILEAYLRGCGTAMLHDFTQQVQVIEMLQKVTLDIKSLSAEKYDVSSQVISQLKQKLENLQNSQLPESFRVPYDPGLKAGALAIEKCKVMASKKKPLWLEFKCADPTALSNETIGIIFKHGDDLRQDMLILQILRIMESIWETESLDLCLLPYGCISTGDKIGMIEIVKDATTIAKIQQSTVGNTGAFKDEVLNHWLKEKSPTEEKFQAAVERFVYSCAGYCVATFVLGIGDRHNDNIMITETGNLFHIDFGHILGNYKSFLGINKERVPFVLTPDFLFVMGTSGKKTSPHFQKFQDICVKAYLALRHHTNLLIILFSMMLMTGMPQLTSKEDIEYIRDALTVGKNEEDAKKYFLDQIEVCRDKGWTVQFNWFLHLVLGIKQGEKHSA

The experiment concerns the target PIK3CG (human) (UniProt P48736). Kind of experiment: Inhibition of PIK3CG Kinase Assay.
Take `O=C(NC1=Nc2ccccc2C2=NCCN12)c1ccc([N+](=O)[O-])cc1`: the 50% inhibitory concentration (IC50) is > 2000 nM.

`Cc1ccc2c(c1)N=C(/C=C(\O)c1cccnc1)N1CCN=C21` gave an IC50 of 100 to 500 nM.

In turn, `O=C(NC1=Nc2ccccc2C2=NCCN12)c1sccc1Cl` had an IC50 of 100 to 500 nM.

With `COc1c(OCC(=O)N2CCOCC2)ccc2c1N=C(/C=C(\O)c1cccnc1)N1CCN=C21`, the IC50 is ≤ 100 nM.

Molecule `O/C(=C\C1=Nc2c(OCCN3CCOCC3)cccc2C2=NCCN12)c1cccnc1` showed an IC50 of 100 to 500 nM.

In the case of `COc1cc(OC)c2c(c1)C1=NCCN1C(NC(=O)c1ccc3[nH]cnc3c1)=N2`, the IC50 is ≤ 100 nM.

`O=C(NC1=Nc2ccccc2C2=NCCN12)c1ccsc1` showed a half-inhibitory concentration (IC50) of 100 to 500 nM.

In the case of `CS(=O)(=O)c1ccc(C(=O)NC2=Nc3ccccc3C3=NCCN23)cc1`, the IC50 is > 2000 nM.

`O=C(NC1=Nc2ccccc2C2=NCCN12)c1ccc(Cl)nc1` showed a concentration for half-maximal inhibition (IC50) of 500 to 2000 nM.

`O/C(=C\C1=Nc2cc(-c3ccccc3)ccc2C2=NCCN12)c1cccnc1` came in with an IC50 of 100 to 500 nM.

Turning to `O=C(NC1=Nc2ccccc2C2=NCCN12)c1c[nH]cn1`, the IC50 is 100 to 500 nM.

Regarding `COc1ccc2c(c1Br)N=C(NC(=O)c1cccnc1)N1CCN=C21`, the IC50 is ≤ 100 nM.

For `Cc1nc(N)ccc1C(=O)NC1=Nc2ccccc2C2=NCCN12`, the IC50 was 100 to 500 nM.

In the case of `O=C(NC1=Nc2ccccc2C2=NCCN12)c1cnc2[nH]cnc2c1`, the half-maximal inhibitory concentration (IC50) is ≤ 100 nM.

Take `CC(=O)NC1CCN(c2ccc3c(c2)N=C(/C=C(\O)c2cccnc2)N2CCN=C32)C1` (stereo not drawn): the IC50 is ≤ 100 nM.

As for `Cc1ccc(/C(O)=C/C2=Nc3ccccc3C3=NCCN23)cn1`, the IC50 was in the range of 100 to 500 nM.

Turning to `COc1c(C)ccc2c1N=C(/C=C(\O)c1ccc3[nH]cnc3c1)N1CCN=C21`, the concentration for half-maximal inhibition (IC50) was ≤ 100 nM.

On to `CN(C=O)c1ccc(C(=O)NC2=Nc3ccccc3C3=NCCN23)cc1`, for which the IC50 was > 2000 nM.

`O=C(NC1=Nc2ccccc2C2=NCCN12)c1ccccn1` showed an IC50 of 500 to 2000 nM.

Take `Cc1ccc(C(=O)NC2=Nc3ccccc3C3=NCCN23)cn1`: the IC50 is ≤ 100 nM.

`O=C(NC1=Nc2ccccc2C2=NCCN12)c1ccc(-n2cccc2)cc1`: the IC50 is > 2000 nM.

Regarding `O=C(NC1=Nc2ccccc2C2=NCCN12)c1cncc(O)c1`, the IC50 was ≤ 100 nM.

Consider `O=C(NC1=Nc2ccccc2C2=NCCN12)c1ccc([N+](=O)[O-])s1`, for which the IC50 was > 2000 nM.

As to `COc1cc2c(c(OC)c1C)N=C(NC(=O)c1ccc3[nH]cnc3c1)N1CCN=C21`, the IC50 fell in the range of 100 to 500 nM.

Take `COc1cccc2c1N=C(NC(=O)c1cccnc1)N1CCN=C21`: the IC50 is ≤ 100 nM.

In the case of `Cn1cccc1C(=O)NC1=Nc2ccccc2C2=NCCN12`, the IC50 lay within 500 to 2000 nM.

With `O=C(NC1=Nc2ccccc2C2=NCCN12)c1csc([N+](=O)[O-])c1`, the IC50 is > 2000 nM.

Consider `O/C(=C\C1=Nc2c(OCC3CC3)cccc2C2=NCCN12)c1cccnc1`, for which the IC50 is 100 to 500 nM.

On to `CC(=O)Nc1ccc(/C(O)=C/C2=Nc3c(CN4CCOCC4)cccc3C3=NCCN23)cn1`, for which the IC50 fell in the range of 100 to 500 nM.

`CNc1ccc(C(=O)NC2=Nc3ccccc3C3=NCCN23)cn1` displayed an IC50 of 100 to 500 nM.

Take `CN(C)C=Nc1cncc(C(=O)NC2=Nc3ccccc3C3=NCCN23)c1`: the 50% inhibitory concentration (IC50) was in the range of 100 to 500 nM.

`O=C(NC1=Nc2cc(OCC(=O)N3CCOCC3)ccc2C2=NCCN12)c1cccnc1` yielded an IC50 of 100 to 500 nM.

Consider `O=C(NC1=Nc2ccccc2C2=NCCN12)c1ccncc1`, for which the IC50 lay within 500 to 2000 nM.

`O/C(=C\C1=Nc2cc(N3CCOCC3)ccc2C2=NCCN12)c1cccnc1` displayed an IC50 of 100 to 500 nM.

As for `Cc1ccc2c(c1OCCN1CCOCC1)N=C(/C=C(\O)c1cccnc1)N1CCN=C21`, the half-maximal inhibitory concentration (IC50) was 100 to 500 nM.

Take `COc1cc(OC)c2c(c1)C1=NCCN1C(/C=C(\O)c1cccnc1)=N2`: the IC50 was ≤ 100 nM.

For `CN(C)c1cccc(C(=O)NC2=Nc3ccccc3C3=NCCN23)c1`, the IC50 was > 2000 nM.

For the molecule `Cc1nc2ncccc2cc1C(=O)NC1=Nc2ccccc2C2=NCCN12`, the IC50 lay in the range of 100 to 500 nM.
